The term IC50 denotes the point on the concentration scale where inhibition reaches its midpoint. High values mean weaker potency in that assay, low ones greater potency in that assay.

In ChEMBL document CHEMBL1139017, “Synthesis and biological activity of (+)-hedychilactone A and its analogs from (+)-sclareolide” (Bioorg Med Chem Lett, 2006) one finds IC50 data, which are given here for 13 molecules.

One test deals with U-87 MG. In words: Cytotoxicity against U87 cancer cell line. It is filed as functional, cell-based, U-87MG ATCC. The note with it: Homo sapiens.
The test system of the next test is U373 MG. In words: Cytotoxicity against U373 cancer cell line. It counts as functional, cell-based, U-373MG ATCC. The note with it: Homo sapiens.
For a further test, the system named is SiHa. As to the kind of experiment: Cytotoxicity against SiHa cancer cell line. It is filed as functional, cell-based. The note with it: Homo sapiens.
The test system of the next test is SK-OV-3. As to the kind of experiment: Cytotoxicity against sk-ov-3 cancer cell line. It counts as functional, cell-based. The note with it: Homo sapiens.
Another test relates to B16. In words: Cytotoxicity against B16 cancer cell line. It counts as functional, cell-based. The note with it: Mus musculus.
Test [1] concerns HUVEC. In words: Antiangiogenic activity against HUVEC cells. It is filed as functional, cell-based. The note with it: Homo sapiens.
Test [2] relates to HUVEC. In words: Inhibition of NO production in HUVEC cells. It is filed as functional, cell-based. The note with it: Homo sapiens.

≈ marks a conversion by molar mass, not a printed value.

For the molecule `CC1=CC[C@H]2C(C)(C)CCC[C@]2(C)[C@H]1C/C=C1/CCOC1=O`, the IC50 in the test on U-87 MG is above 50 µg/mL; in the test on U373 MG, above 50 µg/mL; in the test on SiHa, above 50 µg/mL; in the test with SK-OV-3, above 50 µg/mL; with B16, above 50 µg/mL; in the test on HUVEC [1] it was 4.3 µg/mL (≈ 14.2 µM). This molecule came in with an IC50 in the test with HUVEC [2] above 25 µg/mL.

Turning to `C=C1C(=O)C[C@H]2C(C)(C)CCC[C@]2(C)[C@H]1C/C=C1/CCOC1=O`, the half-inhibitory concentration (IC50) in the test with U-87 MG came out at 1.43 µg/mL (≈ 4.52 µM); with U373 MG it was 0.6 µg/mL (≈ 1.9 µM); in the test with SiHa, 3.4 µg/mL (≈ 10.7 µM); in the test on SK-OV-3 it was 0.8 µg/mL (≈ 2.53 µM); with B16, 1.5 µg/mL (≈ 4.74 µM); in the test on HUVEC [1], 0.6 µg/mL (≈ 1.9 µM). Also, in the test with HUVEC [2], the IC50 is 0.9 µg/mL (≈ 2.84 µM).

Turning to `C=C1CC[C@H]2C(C)(C)CCC[C@]2(C)[C@H]1C/C=C1/CCOC1=O`, the IC50 was above 50 µg/mL in the test on U-87 MG; 40.4 µg/mL (≈ 134 µM) in the test with U373 MG; above 50 µg/mL with SiHa; 4.3 µg/mL (≈ 14.2 µM) in the test on SK-OV-3; 17.6 µg/mL (≈ 58.2 µM) with B16; 2.2 µg/mL (≈ 7.27 µM) with HUVEC [1]. Moreover, in the test with HUVEC [2], the concentration for half-maximal inhibition (IC50) turned out to be 4.5 µg/mL (≈ 14.9 µM).

Consider `CC1=CC[C@H]2C(C)(C)CCC[C@]2(C)[C@H]1C/C=C1\CCOC1=O`, for which the 50% inhibitory concentration (IC50) with U-87 MG amounted to 9.2 µg/mL (≈ 30.4 µM); in the test with U373 MG, 4.7 µg/mL (≈ 15.5 µM); in the test on SiHa it was 17 µg/mL (≈ 56.2 µM); with SK-OV-3, 6 µg/mL (≈ 19.8 µM); in the test on B16, 9.1 µg/mL (≈ 30.1 µM); in the test on HUVEC [1], 2.6 µg/mL (≈ 8.6 µM). In addition, the IC50 with HUVEC [2] was found to be 18 µg/mL (≈ 59.5 µM).

Take `CC(=O)O[C@H]1C(=O)[C@@]2(C)[C@H]([C@H](OC(=O)c3ccccc3)[C@]3(O)C[C@H](OC(=O)[C@H](O)[C@@H](NC(=O)c4ccccc4)c4ccccc4)C(C)=C1C3(C)C)[C@]1(OC(C)=O)CO[C@@H]1C[C@@H]2O` [PACLITAXEL]: the 50% inhibitory concentration (IC50) in the test on U-87 MG was 3.2 µg/mL (≈ 3.75 µM); with SiHa it was 1.3 µg/mL (≈ 1.52 µM); with SK-OV-3, 8.7 µg/mL (≈ 10.2 µM); with B16, below 0.1 µg/mL; in the test on HUVEC [1], 0.3 µg/mL (≈ 0.351 µM).

Take `CC1=CC[C@H]2C(C)(C)CCC[C@]2(C)[C@H]1CC=O`: the IC50 in the test on U-87 MG came out at 11.7 µg/mL (≈ 49.9 µM); in the test with U373 MG, 20.6 µg/mL (≈ 87.9 µM); with SiHa it was 20.9 µg/mL (≈ 89.2 µM); with SK-OV-3 it was 23.5 µg/mL (≈ 100 µM); in the test with B16 it was 21.8 µg/mL (≈ 93 µM); with HUVEC [1], 4.8 µg/mL (≈ 20.5 µM). This molecule also yielded an IC50 in the test on HUVEC [2] of 6 µg/mL (≈ 25.6 µM).

On to `C=C1C(=O)C[C@H]2C(C)(C)CCC[C@]2(C)[C@H]1C/C=C1\CCOC1=O`, for which the IC50 amounted to 1.7 µg/mL (≈ 5.37 µM) in the test on U-87 MG; 3.7 µg/mL (≈ 11.7 µM) with U373 MG; 7 µg/mL (≈ 22.1 µM) in the test with SiHa; 0.9 µg/mL (≈ 2.84 µM) with SK-OV-3; 3.4 µg/mL (≈ 10.7 µM) in the test with B16; 1.2 µg/mL (≈ 3.79 µM) in the test with HUVEC [1]. In addition, the midpoint of inhibition with HUVEC [2], the IC50, lay at 0.7 µg/mL (≈ 2.21 µM).

`C=C1[C@@H](O)C[C@H]2C(C)(C)CCC[C@]2(C)[C@H]1C/C=C1\CCOC1=O` [HEDYCHILACTONE A]: the half-inhibitory concentration (IC50) with U-87 MG was 36.8 µg/mL (≈ 116 µM); in the test with U373 MG it was above 50 µg/mL; in the test with SiHa, above 50 µg/mL; in the test on SK-OV-3 it was 8.7 µg/mL (≈ 27.3 µM); in the test with B16, above 50 µg/mL; in the test on HUVEC [1], 12.6 µg/mL (≈ 39.6 µM). Moreover, the 50% inhibitory concentration (IC50) in the test on HUVEC [2] is 11 µg/mL (≈ 34.5 µM).

Consider `C=C1CC[C@H]2C(C)(C)CCC[C@]2(C)[C@H]1CC=O`, for which the IC50 is 4.1 µg/mL (≈ 17.5 µM) in the test on U-87 MG; 7 µg/mL (≈ 29.9 µM) in the test on U373 MG; 14.5 µg/mL (≈ 61.9 µM) with SiHa; 3.1 µg/mL (≈ 13.2 µM) in the test on SK-OV-3; 4 µg/mL (≈ 17.1 µM) in the test with B16; 2.9 µg/mL (≈ 12.4 µM) in the test with HUVEC [1]. This molecule registered a half-maximal inhibitory concentration (IC50) in the test on HUVEC [2] above 25 µg/mL.

For the molecule `C=C1[C@H](O)C[C@H]2C(C)(C)CCC[C@]2(C)[C@H]1C/C=C1/CCOC1=O`, the IC50 was above 50 µg/mL in the test on U-87 MG; above 50 µg/mL with U373 MG; above 50 µg/mL in the test with SiHa; 10.1 µg/mL (≈ 31.7 µM) with SK-OV-3; above 50 µg/mL in the test with B16; 12.4 µg/mL (≈ 38.9 µM) in the test on HUVEC [1]. For the same molecule, in the test on HUVEC [2], inhibition was half-maximal at 8 µg/mL (≈ 25.1 µM) (IC50).

As to `C=C1[C@H](O)C[C@H]2C(C)(C)CCC[C@]2(C)[C@H]1C/C=C1\CCOC1=O`, the IC50 in the test with U-87 MG worked out at 12.7 µg/mL (≈ 39.9 µM); in the test with U373 MG, 14.9 µg/mL (≈ 46.8 µM); in the test with SiHa, 32 µg/mL (≈ 100 µM); in the test with SK-OV-3, 12.4 µg/mL (≈ 38.9 µM); in the test on B16 it was 16.7 µg/mL (≈ 52.4 µM); with HUVEC [1] it was 6.9 µg/mL (≈ 21.7 µM). The molecule further gave an IC50 in the test on HUVEC [2] of 13.2 µg/mL (≈ 41.4 µM).

As to `C=C1CC[C@H]2C(C)(C)CCC[C@]2(C)[C@H]1C/C=C1\CCOC1=O`, the 50% inhibitory concentration (IC50) is 5 µg/mL (≈ 16.5 µM) with U-87 MG; 15.1 µg/mL (≈ 49.9 µM) with U373 MG; 20.2 µg/mL (≈ 66.8 µM) in the test with SiHa; 2 µg/mL (≈ 6.61 µM) with SK-OV-3; 17.6 µg/mL (≈ 58.2 µM) with B16; 1.7 µg/mL (≈ 5.62 µM) in the test with HUVEC [1]. Moreover, it took 5 µg/mL (≈ 16.5 µM) to reach half-maximal inhibition with HUVEC [2] (IC50).

For the molecule `C=C1[C@@H](O)C[C@H]2C(C)(C)CCC[C@]2(C)[C@H]1C/C=C1/CCOC1=O`, the 50% inhibitory concentration (IC50) was above 50 µg/mL in the test with U-87 MG; 15.7 µg/mL (≈ 49.3 µM) in the test with U373 MG; 31.7 µg/mL (≈ 99.5 µM) in the test with SiHa; 5.3 µg/mL (≈ 16.6 µM) with SK-OV-3; above 50 µg/mL with B16; 13.8 µg/mL (≈ 43.3 µM) in the test with HUVEC [1]. 11.2 µg/mL (≈ 35.2 µM) corresponded to half-maximal inhibition in the test on HUVEC [2] (IC50).
